Experimental data from patent publication US10597388B2, “Pyridazinone herbicides” (FMC CORPORATION, priority 2014, dated 2020).

Assays:
Test in all cases: Test D controlled growth environment herbicide test, pre- and postemergence
Format in all cases: in vivo
[1] = test system: barley, winter (winter barley, Hordeum vulgare)
How it was run: (§1)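 Species sown in silt loam and sprayed preemergence, or grown in peat-based medium to 2–18 cm (1- to 4-leaf stage) and sprayed postemergence, with compounds in non-phytotoxic solvent plus surfactant. Visual injury scored versus controls after 14–21 d in a controlled environment, 0 (no effect) to 100 (complete control).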

[2] = test system: oat, wild (wild oat, Avena fatua)
How it was run: as §1

[3] = test system: galium (catchweed bedstraw, Galium aparine)
How it was run: as §1

[4] = test system: barley, spring (spring barley, Hordeum vulgare)
How it was run: as §1

[5] = test system: bluegrass (annual bluegrass, Poa annua)
How it was run: as §1

[6] = test system: kochia (Kochia scoparia)
How it was run: as §1

[7] = test system: speedwell (bird's-eye speedwell, Veronica persica)
How it was run: as §1

[8] = test system: chamomile (scentless chamomile, Matricaria inodora)
How it was run: as §1

[9] = test system: bromegrass, downy (downy bromegrass, Bromus tectorum)
How it was run: as §1

[10] = test system: canarygrass (Phalaris minor)
How it was run: as §1

[11] = test system: lambsquarters (Chenopodium album)
How it was run: as §1

[12] = test system: mustard, wild (wild mustard, Sinapis arvensis)
How it was run: as §1

[13] = test system: foxtail, green (green foxtail, Setaria viridis)
How it was run: as §1

[14] = Postemergence, 31 g ai/ha, scale 0 to 100 (0 no effect, 100 complete control)
[15] = Postemergence, 125 g ai/ha, visual rating on scale 0 (no effect) to 100 (complete control), 14 to 21 d
[16] = Postemergence, 250 g ai/ha, scale 0 to 100 (0 no effect, 100 complete control)
[17] = Preemergence, 62 g ai/ha, scale 0 to 100 (0 no effect, 100 complete control)
[18] = Preemergence, 125 g ai/ha, scale 0 to 100 (0 no effect, 100 complete control)
[19] = Preemergence, 250 g ai/ha, scale 0 to 100 (0 no effect, 100 complete control)
[20] = postemergence, 62 g ai/ha, scale 0 to 100, 0 no effect, 100 complete control

For Cc1ccc2ccc(C)c(-c3c(O)c(C)nn(C)c3=O)c2c1 [Compound 60], which “Barley, Winter plant response rating” value [1, 14] is on record?
Its value is 10.

What about the “Plant response rating, Barley, Winter” value [1, 15] of the same compound?
Its value is 40.

And the “Plant response rating, Barley, Winter” value [1, 16]?
The value was 50.

What about the “Plant response rating (scale of 0 to 100), Barley, Winter” value ([1]; Preemergence, 31 g ai/ha) of the same compound?
The value was 15.

And the “Plant response rating, Barley, Winter” value [1, 17]?
Its value is 30.

What about the “Plant response rating, Barley, Winter” value [1, 18] of the same compound?
The value was 50.

And the “Plant response rating, Barley, Winter” value [1, 19]?
The value was 65.

And the “Plant response rating, Barley, Winter” value [1, 20]?
The value was 25.

What about the “Oat, Wild plant response rating” value [2, 14] of the same compound?
The value was 85.

What about the “Plant response rating, Oat, Wild” value [2, 15] of the same compound?
Its value is 95.

And the “Plant response rating, Oat, Wild” value [2, 16]?
Its value is 100.

What about the “Plant response rating (scale of 0 to 100), Oat, Wild” value ([2]; Preemergence, 31 g ai/ha) of the same compound?
The value was 90.

And the “Plant response rating, Oat, Wild” value [2, 17]?
The value was 95.

And the “Plant response rating, Oat, Wild” value [2, 18]?
The value was 100.

What about the “Plant response rating, Oat, Wild” value [2, 19] of the same compound?
Its value is 100.

What about the “Plant response rating, Oat, Wild” value [2, 20] of the same compound?
Its value is 90.

What about the “Galium plant response rating” value [3, 14] of the same compound?
The value was 100.

What about the “Plant response rating, Galium” value [3, 15] of the same compound?
Its value is 100.

And the “Plant response rating, Galium” value [3, 16]?
The value was 100.

What about the “Plant response rating (scale of 0 to 100), Galium” value ([3]; Preemergence, 31 g ai/ha) of the same compound?
Its value is 75.

What about the “Plant response rating, Galium” value [3, 17] of the same compound?
The value was 85.

What about the “Plant response rating, Galium” value [3, 18] of the same compound?
Its value is 95.

And the “Plant response rating, Galium” value [3, 19]?
Its value is 100.

And the “Plant response rating, Galium” value [3, 20]?
Its value is 100.

And the “Barley, Spring plant response rating” value [4, 14]?
Its value is 15.

And the “Plant response rating, Barley, Spring” value [4, 15]?
The value was 40.

And the “Plant response rating, Barley, Spring” value [4, 16]?
Its value is 50.

And the “Plant response rating (scale of 0 to 100), Barley, Spring” value ([4]; Preemergence, 31 g ai/ha)?
The value was 5.

What about the “Plant response rating, Barley, Spring” value [4, 17] of the same compound?
The value was 10.

What about the “Plant response rating, Barley, Spring” value [4, 18] of the same compound?
Its value is 45.

And the “Plant response rating, Barley, Spring” value [4, 19]?
The value was 60.

And the “Plant response rating, Barley, Spring” value [4, 20]?
Its value is 25.

What about the “Bluegrass plant response rating” value [5, 14] of the same compound?
Its value is 15.

And the “Plant response rating, Bluegrass” value [5, 15]?
The value was 35.

And the “Plant response rating, Bluegrass” value [5, 16]?
Its value is 60.

And the “Plant response rating (scale of 0 to 100), Bluegrass” value ([5]; Preemergence, 31 g ai/ha)?
The value was 35.

And the “Plant response rating, Bluegrass” value [5, 17]?
The value was 45.

What about the “Plant response rating, Bluegrass” value [5, 18] of the same compound?
Its value is 65.

What about the “Plant response rating, Bluegrass” value [5, 19] of the same compound?
The value was 80.

And the “Plant response rating, Bluegrass” value [5, 20]?
The value was 25.

And the “Kochia plant response rating” value [6, 14]?
Its value is 70.

And the “Plant response rating, Kochia” value [6, 15]?
The value was 90.

And the “Plant response rating, Kochia” value [6, 16]?
The value was 95.

And the “Plant response rating (scale of 0 to 100), Kochia” value ([6]; Preemergence, 31 g ai/ha)?
The value was 15.

And the “Plant response rating, Kochia” value [6, 17]?
The value was 20.

What about the “Plant response rating, Kochia” value [6, 18] of the same compound?
Its value is 60.

What about the “Plant response rating, Kochia” value [6, 19] of the same compound?
The value was 75.

What about the “Plant response rating, Kochia” value [6, 20] of the same compound?
The value was 85.

And the “Speedwell plant response rating” value [7, 14]?
The value was 85.

And the “Plant response rating, Speedwell” value [7, 15]?
Its value is 90.

What about the “Plant response rating, Speedwell” value [7, 16] of the same compound?
Its value is 100.

What about the “Plant response rating (scale of 0 to 100), Speedwell” value ([7]; Preemergence, 31 g ai/ha) of the same compound?
The value was 100.

And the “Plant response rating, Speedwell” value [7, 17]?
The value was 100.

And the “Plant response rating, Speedwell” value [7, 18]?
Its value is 100.

What about the “Plant response rating, Speedwell” value [7, 19] of the same compound?
Its value is 100.

What about the “Plant response rating, Speedwell” value [7, 20] of the same compound?
Its value is 80.

What about the “Chamomile plant response rating” value [8, 14] of the same compound?
Its value is 75.

And the “Plant response rating, Chamomile” value [8, 15]?
Its value is 100.

What about the “Plant response rating, Chamomile” value [8, 16] of the same compound?
Its value is 100.

And the “Plant response rating (scale of 0 to 100), Chamomile” value ([8]; Preemergence, 31 g ai/ha)?
Its value is 95.

What about the “Plant response rating, Chamomile” value [8, 17] of the same compound?
The value was 100.

What about the “Plant response rating, Chamomile” value [8, 18] of the same compound?
The value was 100.

And the “Plant response rating, Chamomile” value [8, 19]?
Its value is 100.

What about the “Plant response rating, Chamomile” value [8, 20] of the same compound?
The value was 80.

And the “Bromegrass, Downy plant response rating” value [9, 14]?
Its value is 30.

And the “Plant response rating, Bromegrass, Downy” value [9, 15]?
Its value is 65.

And the “Plant response rating, Bromegrass, Downy” value [9, 16]?
The value was 80.

What about the “Plant response rating (scale of 0 to 100), Bromegrass, Downy” value ([9]; Preemergence, 31 g ai/ha) of the same compound?
The value was 60.

And the “Plant response rating, Bromegrass, Downy” value [9, 17]?
Its value is 90.

And the “Plant response rating, Bromegrass, Downy” value [9, 18]?
Its value is 95.

And the “Plant response rating, Bromegrass, Downy” value [9, 19]?
The value was 98.

What about the “Plant response rating, Bromegrass, Downy” value [9, 20] of the same compound?
Its value is 55.

And the “Canarygrass plant response rating” value [10, 14]?
The value was 80.

What about the “Plant response rating, Canarygrass” value [10, 15] of the same compound?
Its value is 85.

What about the “Plant response rating, Canarygrass” value [10, 16] of the same compound?
The value was 90.

And the “Plant response rating (scale of 0 to 100), Canarygrass” value ([10]; Preemergence, 31 g ai/ha)?
The value was 90.

What about the “Plant response rating, Canarygrass” value [10, 17] of the same compound?
Its value is 95.

And the “Plant response rating, Canarygrass” value [10, 18]?
The value was 95.

What about the “Plant response rating, Canarygrass” value [10, 19] of the same compound?
Its value is 100.

What about the “Plant response rating, Canarygrass” value [10, 20] of the same compound?
The value was 80.

What about the “Lambsquarters plant response rating” value [11, 14] of the same compound?
The value was 80.

What about the “Plant response rating, Lambsquarters” value [11, 15] of the same compound?
Its value is 80.

And the “Plant response rating, Lambsquarters” value [11, 16]?
The value was 80.

What about the “Plant response rating (scale of 0 to 100), Lambsquarters” value ([11]; Preemergence, 31 g ai/ha) of the same compound?
Its value is 100.

What about the “Plant response rating, Lambsquarters” value [11, 17] of the same compound?
The value was 100.

What about the “Plant response rating, Lambsquarters” value [11, 18] of the same compound?
Its value is 100.

And the “Plant response rating, Lambsquarters” value [11, 19]?
Its value is 100.

What about the “Plant response rating, Lambsquarters” value [11, 20] of the same compound?
The value was 80.

And the “Mustard, Wild plant response rating” value [12, 14]?
Its value is 75.

And the “Plant response rating, Mustard, Wild” value [12, 15]?
The value was 98.

And the “Plant response rating, Mustard, Wild” value [12, 16]?
Its value is 100.

And the “Plant response rating (scale of 0 to 100), Mustard, Wild” value ([12]; Preemergence, 31 g ai/ha)?
Its value is 45.

What about the “Plant response rating, Mustard, Wild” value [12, 17] of the same compound?
The value was 70.

And the “Plant response rating, Mustard, Wild” value [12, 18]?
Its value is 85.

And the “Plant response rating, Mustard, Wild” value [12, 19]?
Its value is 90.

And the “Plant response rating, Mustard, Wild” value [12, 20]?
Its value is 75.

And the “Foxtail, Green plant response rating” value [13, 14]?
The value was 35.

What about the “Plant response rating, Foxtail, Green” value [13, 15] of the same compound?
Its value is 65.

And the “Plant response rating, Foxtail, Green” value [13, 16]?
Its value is 75.

And the “Plant response rating (scale of 0 to 100), Foxtail, Green” value ([13]; Preemergence, 31 g ai/ha)?
The value was 70.

What about the “Plant response rating, Foxtail, Green” value [13, 17] of the same compound?
The value was 80.

And the “Plant response rating, Foxtail, Green” value [13, 18]?
Its value is 95.

What about the “Plant response rating, Foxtail, Green” value [13, 19] of the same compound?
Its value is 100.

And the “Plant response rating, Foxtail, Green” value [13, 20]?
The value was 40.
